Source: patent US20230355597A1, “COMPOUNDS, COMPOSITIONS, AND METHODS FOR THE TREATMENT AND PREVENTION OF AVIAN PATHOGENIC E. COLI (APEC)” (OHIO STATE INNOVATION FOUNDATION, priority 2018, published 2023)

Tests used:
[1] = test system: AI-2 activity of APEC O35; test: AI-2 bioluminescence indicator assay (V. harveyi BB170); details: APEC O35, 100 µM
[2] = test system: AI-2 activity of APEC O115; test: as above; details: APEC O115, 100 µM
[3] = test system: AI-2 activity of APEC O109; test: as above; details: APEC O109, 100 µM
[4] = test system: AI-2 activity of APEC O78; test: as above; details: APEC O78, 100 µM
Rif^r APEC O78 [5] = test: In vivo screening of quorum sensing inhibitors in APEC infected broiler chickens
AI-2 activity of APEC O2 = test: AI-2 bioluminescence indicator assay (V. harveyi BB170); details: APEC O2, 100 µM
[6] = test system: AI-2 activity of APEC O15; test: as above; details: APEC O15, 100 µM
AI-2 activity of APEC O1 = test: as above; details: APEC O1, 100 µM
AI-2 activity of APEC O8 = test: as above; details: APEC O8, 100 µM
Rif^r APEC O78 [7] = test: Wax moth (Galleria mellonella) larva infection model (AI-2 inhibitors); details: 72 h post treatment
[8] = test system: AI-2 activity of APEC O18; test: AI-2 bioluminescence indicator assay (V. harveyi BB170); details: APEC O18, 100 µM
APEC O78 = test: Loss of 260/280 nm absorbing materials assay; type: cell-based, avian pathogenic Escherichia coli (APEC); details: 2X MBC, 1 h, *P<0.05 vs DMSO

| SMILES | Inhibition % of AI-2 activity [1] [%] | Inhibition % of AI-2 activity [2] [%] | Inhibition % of AI-2 activity [3] [%] | Inhibition % of AI-2 activity [4] [%] | reduction in chicken mortality (Rif^r APEC O78 [5]; DMSO control mortality normalized to 100%) | Mortality rate (%) (Rif^r APEC O78 [5]; oral gavage once a day, day 4 to day 8, DMSO control 66.7%) | Reduction in APEC lesions severity, Air-sacs (%) (Rif^r APEC O78 [5]; vs DMSO treated control) | Reduction in APEC lesions severity, Heart (%) (Rif^r APEC O78 [5]; vs DMSO treated control) | Reduction in APEC lesions severity, Liver (%) (Rif^r APEC O78 [5]; vs DMSO treated control) | Reduction in APEC lesions severity, Lung (%) (Rif^r APEC O78 [5]; vs DMSO treated control) | Inhibition % of AI-2 activity (AI-2 activity of APEC O2) [%] | Inhibition % of AI-2 activity [6] [%] | Inhibition % of AI-2 activity (AI-2 activity of APEC O1) [%] | Inhibition % of AI-2 activity (AI-2 activity of APEC O8) [%] | larval death (Rif^r APEC O78 [7]) | Inhibition % of AI-2 activity [8] [%] | Absorbance 260 (APEC O78; 260 nm absorbing material in supernatant) | Absorbance 280 (APEC O78; 280 nm absorbing material in supernatant) |
| --- | --- | --- | --- | --- | --- | --- | --- | --- | --- | --- | --- | --- | --- | --- | --- | --- | --- | --- |
| O=C(CCN1CCN(c2ccccc2F)CC1)Nc1ccc(Br)cc1 [C7, N-(4-bromophenyl)-3-[4-(2-fluomphenyl)-1-piperazinyl]propanamide] | 62 | 45 | 67 | 94 | did not reduce | 66.7 | 33.3 | 33.3 | 33.3 | 83.3 | 83 | 36 | 47 | 2 | no larval death | 48 | – | – |
| O=C(O)CN(CCN(CC(=O)O)CC(=O)O)CC(=O)O [EDTA, reference compound] | – | – | – | – | – | – | – | – | – | – | – | – | – | – | – | – | 4.00* | 2.60 |
